Source: patent US11866720B2, “Transgenic or non-transgenic plants with mutated protoporphyrinogen oxidase having increased tolerance to herbicides” (priority 2013, dated 2024)
Values joined by “and” are separate entries in the source; they are usually repeats but may differ in a detail not shown here. Equal values may be shown once.

Legend:
[1] = tested on: transgenic soybean expressing mutated PPO; test: Soybean segregating T1 individuals, greenhouse spray test (injury 0-9); type: in vivo, Glycine max; conditions: Saflufenacil 150 g ai/ha, 1 week after treatment
[2] = tested on: transgenic Arabidopsis thaliana plants expressing wildtype or mutated PPO; test: Germination / growth inhibition assay of transgenic Arabidopsis T2 seeds in 48-well plates; conditions: growth inhibition seven to ten days after seeding
[3] = tested on: transgenic soybean expressing mutated PPO; test: Soybean T0 cuttings, greenhouse spray test (injury score 0-9, 1 week after treatment); type: in vivo, Glycine max; conditions: for Injury score from 0-9: soybean T0 cuttings, 1 week after treatment
From the text: For testing of T0 plants, cuttings can be used. In the case of soybean plants, an optimal shoot for cutting is about 7.5 to 10 cm tall, with at least two nodes present. Each cutting is taken from the original transformant (mother plant) and dipped into rooting hormone powder (indole-3-butyric acid, IBA). The cutting is then placed in oasis wedges inside a bio-dome. Wild type cuttings are also taken simultaneously to serve as controls. The cuttings are kept in the bio-dome for 5-7 days and then transplanted to pots and then acclimated in the growth chamber for two more days. Subsequently, the cuttings are transferred to the greenhouse, acclimated for approximately 4 days, and then subjected to spray tests as indicated. Depending on the species, the plants are kept at 10-25° C. or 20-35° C. The test period extends over 3 weeks. During this time, the plants are tended and their response to the individual treatments is evaluated. Herbicide injury evaluations are taken at 2 and 3 weeks after treatment. Plant injury is rated on a scale of 0% to 100%, 0% being no injury and 100% being complete death.
Soybean cv Jake was transformed as previously described by Siminszky et al., Phytochem Rev. 5:445-458 (2006). After regeneration, transformants were transplanted to soil in small pots, placed in growth chambers (16 hr day/8 hr night; 25° C. day/23° C. night; 65% relative humidity; 130-150 microE m-2 s-1) and subsequently tested for the presence of the T-DNA via Taqman analysis. After a few weeks, healthy, transgenic positive, single copy events were transplanted to larger pots and allowed to grow in the growth chamber. An optimal shoot for cutting was about 3-4 inches tall, with at least two nodes present. Each cutting was taken from the original transformant (mother plant) and dipped into rooting hormone powder (indole-3-butyric acid, IBA). The cutting was then placed in oasis wedges inside a bio-dome. The mother plant was taken to maturity in the greenhouse and harvested for seed. Wild type cuttings were also taken simultaneously to serve as negative controls. The cuttings were kept in the bio-dome for 5-7 days and then transplanted to 3 inch pots and then acclimated in the growth chamber for two more days. […] Herbicide injury evaluations were taken at 2, 7, 14 and 21 days after treatment. Results are shown in Tables 11a-11i, and FIGS. 5, 6, and 7.
The following gives a definition of the injury scores measured above: […]

CC(C)N(C)S(=O)(=O)NC(=O)c1cc(-n2c(=O)cc(C(F)(F)F)n(C)c2=O)c(F)cc1Cl [Saflufenacil, saflufenacil]
injury (0-9 point scale) ([1]; SDS10791 AmtuPPX2L R128A_F420I): 1 (2×) and 2 and 0 and 9 (4×)
injury (0-9 point scale) ([1]; SDS-10642 AmtuPPX2L R128A_F420L): 0 (6×) and 1 (2×)
injury (0-9 point scale) ([1]; SDS-10648 AmtuPPX2L R128A_F420I): 3 and 4 (3×) and 5 (3×) and 6
injury (0-9 point scale) ([1]; SDS-10652 AmtuPPX2L L397D_F420V): 3 (3×) and 5 (2×) and 4 (2×) and 6
injury (0-9 point scale) ([1]; SDS-10787 AmtuPPX2L R128A_F420L): 6 and 5 and 4 (4×) and 0 and 9
injury (0-9 point scale) ([1]; SDS-10985 AmtuPPX2L R128A_F420M): 0 (3×) and 1 (2×) and 3 and 2
injury (0-9 point scale) ([1]; SDS-10990 AmtuPPX2L R128A_F420M): 3 (4×) and 4 and 9 and 0 and 1
injury (0-9 point scale) ([1]; SDS-11034 AmtuPPX2L R128A_F420V): 0 (5×) and 5 and 1 and 2
injury (0-9 point scale) ([1]; wild type): 9
Relative tolerance rate as compared to a non-transgenic Arabidopsis plant (non-transgenic = 1.0) ([2]; transgenic Arabidopsis AMATU_PPO2_F420I): 80
Relative tolerance rate as compared to a non-transgenic Arabidopsis plant (non-transgenic = 1.0) ([2]; transgenic Arabidopsis AMATU_PPO2_F420L): 192
Relative tolerance rate as compared to a non-transgenic Arabidopsis plant (non-transgenic = 1.0) ([2]; transgenic Arabidopsis AMATU_PPO2_F420M): 168
Relative tolerance rate as compared to a non-transgenic Arabidopsis plant (non-transgenic = 1.0) ([2]; transgenic Arabidopsis AMATU_PPO2_R128A_F420I): 1200
Relative tolerance rate as compared to a non-transgenic Arabidopsis plant (non-transgenic = 1.0) ([2]; transgenic Arabidopsis AMATU_PPO2_R128A_F420L): 1200
Relative tolerance rate as compared to a non-transgenic Arabidopsis plant (non-transgenic = 1.0) ([2]; transgenic Arabidopsis AMATU_PPO2_R128A_F420M): 1160
Relative tolerance rate as compared to a non-transgenic Arabidopsis plant (non-transgenic = 1.0) ([2]; transgenic Arabidopsis AMATU_PPO2_R128L): 160
Relative tolerance rate as compared to a non-transgenic Arabidopsis plant (non-transgenic = 1.0) ([2]; transgenic Arabidopsis AMATU_PPO2_dG210): 100
Relative tolerance rate as compared to a non-transgenic Arabidopsis plant (non-transgenic = 1.0) ([2]; transgenic Arabidopsis AMATU_PPO2_dG210_R128L): 1200
Relative tolerance rate as compared to a non-transgenic Arabidopsis plant (non-transgenic = 1.0) ([2]; transgenic Arabidopsis AMATU_PPO2_wt): 10
injury score 1 WAT ([3]; Soy T0 AmtuPPX2L_R128L_F420V event 1, greenhouse, 100 g ai/ha): 4
injury score 1 WAT ([3]; Soy T0 AmtuPPX2L_R128L_F420V event 1, greenhouse, 200 g ai/ha): 6
injury score 1 WAT ([3]; Soy T0 AmtuPPX2L_R128L_F420V event 2, greenhouse, 100 g ai/ha): 1
injury score 1 WAT ([3]; Soy T0 AmtuPPX2L_R128L_F420V event 2, greenhouse, 200 g ai/ha): 2
Injury score from 0-9 ([3]; AmtuPPX2L (10 events), Kixor 12.5 + 1% MSO): 2
Injury score from 0-9 ([3]; AmtuPPX2L (10 events), Kixor 25 + 1% MSO): 4
Injury score from 0-9 ([3]; AmtuPPX2L (10 events), Kixor 50 + 1% MSO): 7
Injury score from 0-9 ([3]; AmtuPPX2L_F420L (7 events), Kixor 12.5 + 1% MSO): 1
Injury score from 0-9 ([3]; AmtuPPX2L_F420L (7 events), Kixor 25 + 1% MSO): 0
Injury score from 0-9 ([3]; AmtuPPX2L_F420L (7 events), Kixor 50 + 1% MSO): 0
Injury score from 0-9 ([3]; AmtuPPX2L_F420M (8 events), Kixor 25 + 1% MSO): 0
Injury score from 0-9 ([3]; AmtuPPX2L_F420M (8 events), Kixor 50 + 1% MSO): 3
Injury score from 0-9 ([3]; AmtuPPX2L_F420M (8 events), Kixor 100 + 1% MSO): 3
Injury score from 0-9 ([3]; AmtuPPX2L_R128A_F420I (9 events), Kixor 200 + 1% MSO): 1
Injury score from 0-9 ([3]; AmtuPPX2L_R128A_F420L (6 events), Kixor 25 + 1% MSO): 0
Injury score from 0-9 ([3]; AmtuPPX2L_R128A_F420L (6 events), Kixor 50 + 1% MSO): 1
Injury score from 0-9 ([3]; AmtuPPX2L_R128A_F420L (6 events), Kixor 100 + 1% MSO): 1
Injury score from 0-9 ([3]; AmtuPPX2L_R128A_F420M (7 events), Kixor 100 + 1% MSO): 2
Injury score from 0-9 ([3]; AmtuPPX2L_R128A_F420M (7 events), Kixor 200 + 1% MSO): 2
Injury score from 0-9 ([3]; AmtuPPX2L_R128A_F420V (14 events), Kixor 100 + 1% MSO): 2
Injury score from 0-9 ([3]; AmtuPPX2L_R128A_F420V (14 events), Kixor 200 + 1% MSO): 2
Injury score from 0-9 ([3]; AmtuPPX2L_dG210 (13 events), Kixor 25 + 1% MSO): 1
Injury score from 0-9 ([3]; AmtuPPX2L_dG210 (13 events), Kixor 50 + 1% MSO): 2
Injury score from 0-9 ([3]; AmtuPPX2L_dG210 (13 events), Kixor 100 + 1% MSO): 1
